From article PMC5587682 (Scientific Reports, 2017)
Where two headings read alike, the source gives them in different places. Positions of bridges follow the written chain, without caps; N, C: chain ends. Residues, ends and D or L forms follow the SMILES beside them.

What was measured:
A/Parma/05/06 H3N2 [1] = system: A/Parma/05/06 H3N2
A/Parma/05/06 H3N2 [2] = format: cell-based, Influenza A virus; conditions: turkey erythrocytes
[3] = system: A/Roma-ISS/02/08 H1N1 oseltamivir-sensitive virus; format: cell-based, Influenza A virus; conditions: turkey erythrocytes
[4] = system: Influenza A virus strains (all tested viruses); conditions: earlier work; ref [23]; cited from earlier work
[5] = system: Influenza A virus strains (all tested viruses); conditions: earlier work; ref [23]; cited from earlier work; remark: listed apart in the source
[6] = A/Roma-ISS/02/08 H1N1, MDCK cells, CC50 >25 μM
[7] = A/Parma/24/09 H1N1, MDCK cells, CC50 >25 μM
[8] = A/Parma/05/06 H3N2, MDCK cells, CC50 >25 μM
[9] = A/Roma-ISS/02/08 H1N1, MDCK cells, mean of 3 experiments with standard errors
[10] = A/Parma/24/09 H1N1, MDCK cells, mean of 3 experiments with standard errors
[11] = A/Parma/05/06 H3N2, MDCK cells, mean of 3 experiments with standard errors
[12] = A/Roma-ISS/2/08 H1N1, neutralization

| Compound | SI (CC50/EC50) (A/Roma-ISS/02/08 H1N1; [6]) | SI (CC50/EC50) (A/Parma/24/09 H1N1; [7]) | SI (CC50/EC50) (A/Parma/05/06 H3N2 [1]; [8]) | HI titer (A/Parma/05/06 H3N2 [2]) [nM] | HI titer [3] [nM] | further results |
| --- | --- | --- | --- | --- | --- | --- |
| CC(C)C[C@H](NC(=O)[C@H](CO)NC(=O)[C@H](CO)NC(=O)[C@H](Cc1c[nH]cn1)NC(=O)[C@H](CCCCN)NC(=O)[C@@H](N)CO)C(=O)N[C@@H](CC(=O)O)C(=O)N[C@@H](CS)C(=O)N[C@H](C(=O)N[C@@H](CC(C)C)C(=O)N[C@@H](CCCNC(=N)N)C(=O)N1CCC[C@H]1C(=O)O)C(C)C [Peptide 1, SKHSSLDCVLRP] (H-SKHSSLDCVLRP-OH) | >6.25.10^6 | >8.10^6 | >4.4.10^6 | – | – | – |
| CC(C)C[C@H](NC(=O)CNC(=O)[C@H](CCC(=O)O)NC(=O)[C@H](CC(N)=O)NC(=O)[C@H](C)NC(=O)[C@@H](N)CCCCN)C(=O)N[C@H](C(=O)N[C@@H](Cc1c[nH]c2ccccc12)C(=O)N[C@@H](CC(N)=O)C(=O)N[C@@H](CO)C(=O)N[C@@H](CC(C)C)C(=O)N[C@@H](CCCCN)C(=O)N[C@@H](CC(=O)O)C(=O)N[C@@H](CCCCN)C(=O)O)[C@@H](C)O [Peptide 4, KANEGLTWNSLKDK] (H-KANEGLTWNSLKDK-OH) | >2.5.10^7 | >5.10^2 | >2.5.10^4 | – | – | EC50 (A/Roma-ISS/02/08 H1N1; [9]): 1 ± 0.15 pM |
| C[C@H](NC(=O)CNC(=O)[C@@H]1CCCN1C(=O)[C@H](C)NC(=O)[C@@H]1CSSC[C@H](NC(=O)[C@H](CO)NC(=O)CNC(=O)[C@@H](N)[C@@H](C)O)C(=O)N[C@@H](C)C(=O)N[C@@H](Cc2ccccc2)C(=O)N[C@@H](CC(=O)O)C(=O)N[C@@H](CCC(=O)O)C(=O)N[C@@H](Cc2ccccc2)C(=O)N[C@@H](Cc2ccccc2)C(=O)N[C@@H](CO)C(=O)N[C@@H](CCC(N)=O)C(=O)N[C@@H](CO)C(=O)N1)C(=O)N[C@@H](CC(=O)O)C(=O)N1CCC[C@H]1C(=O)N[C@@H](CCCCN)C(=O)N[C@@H](CO)C(=O)N[C@@H](CCCNC(=N)N)C(=O)O [Peptide 5] (H-TGSCAFDEFFSQSCAPGADPKSR-OH; disulfide 4-14; N-terminus assumed) | – | – | – | 97 | – | – |
| C[C@H](NC(=O)[C@H](Cc1c[nH]c2ccccc12)NC(=O)[C@H](CC(=O)O)NC(=O)[C@H](C)NC(=O)[C@@H](NC(=O)[C@H](CO)NC(=O)[C@H](CCC(=O)O)NC(=O)CNC(=O)[C@H](CC(N)=O)NC(=O)[C@@H](N)[C@@H](C)O)[C@@H](C)O)C(=O)N[C@@H](CCCCN)C(=O)N[C@@H](CC(N)=O)C(N)=O [Peptide 6, TNGESTADWAKN] (H-TNGESTADWAKN-NH2; N-terminus and C-terminus assumed) | >6.25.10^4 | >5.10^2 | >2.5.10^3 | 0.3 | 0.7 | EC50 (A/Roma-ISS/02/08 H1N1; [9]): 400 ± 0.02 pM |
| C[C@@H](O)[C@H](NC(=O)[C@H](CCC(=O)O)NC(=O)[C@H](CO)NC(=O)[C@@H](N)CCCCN)C(=O)N[C@@H](CCCCN)C(=O)N[C@@H](CC(N)=O)C(=O)O [Peptide 8, KSETKN] (H-KSETKN-OH; N-terminus and C-terminus assumed) | >5.10^7 | >5.10^4 | >0.65.10^2 | 3 | 1.5 | EC50 (A/Parma/24/09 H1N1; [10]): 500 ± 0.46 pM |
| CC(C)C[C@H](NC(=O)[C@@H](NC(=O)[C@H](CS)NC(=O)[C@H](CC(=O)O)NC(=O)[C@H](CC(C)C)NC(=O)[C@@H](N)CO)C(C)C)C(=O)N[C@@H](CCCNC(=N)N)C(=O)N1CCC[C@H]1C(N)=O [Peptide 13, SLDCVLRP] (H-SLDCVLRP-NH2) | >8.33.10^7 | >1.10^7 | >8.33.10^4 | 0.0004 | 0.0007 | EC50 (A/Parma/24/09 H1N1; [10]): 2.5 ± 0.37 pM; EC50 (A/Parma/05/06 H3N2 [1]; [11]): 300 ± 0.2 pM; loss of activity with respect to 1 (A/Parma/05/06 H3N2 [1]; H3N2 strain, neutralization): ≈ 50 fold |
| CC(=O)N[C@H](C(=O)N[C@@H](CC(C)C)C(=O)N[C@@H](CCCNC(=N)N)C(=O)N1CCC[C@H]1C(N)=O)C(C)C [Peptide 14, VLRP] (Ac-VLRP-NH2) | – | – | – | – | – | SI (CC50/EC50) (A/Roma-ISS/02/08 H1N1): >5.55.10^7; SI (CC50/EC50) (A/Parma/24/09 H1N1): >2.5.10^7; EC50 (A/Parma/24/09 H1N1; A/Parma/24/09, 1 h): 1 ± 0.05 pM; SI (CC50/EC50) (A/Parma/05/06 H3N2 [1]): >1.10^5; EC50 (A/Parma/05/06 H3N2 [1]; A/Parma/05/06, 1 h): 250 ± 0.42 pM |
| CC(=O)N[C@@H](CO)C(=O)N[C@@H](CC(C)C)C(=O)N[C@@H](CC(=O)O)C(=O)N[C@@H](CS)C(N)=O [Peptide 15, SLDC] (Ac-SLDC-NH2) | >5.10^7 | >5.4.10^6 | – | – | – | EC50 (A/Parma/24/09 H1N1; [10]): 4.6 ± 0.05 pM |
| CC(C)C[C@H](NC(=O)[C@H](CO)NC(=O)[C@H](CO)NC(=O)[C@H](Cc1c[nH]cn1)NC(=O)[C@H](CCCCN)NC(=O)[C@@H](N)CO)C(=O)N[C@@H](CC(=O)O)C(=O)N[C@@H](CS)C(=O)O [Peptide 16, SKHSSLDC] (H-SKHSSLDC-OH; N-terminus and C-terminus assumed) | >3.125.10^5 | >2.5.10^8 | >5.10^6 | 12 | 0.3 | fold less active than 1 (A/Roma-ISS/02/08 H1N1; [12]): 20 fold; fold less active than 13 (A/Roma-ISS/02/08 H1N1; [12]): 270 fold; EC50 (A/Roma-ISS/02/08 H1N1; [9]): 80 ± 0.19 pM; fold more potent than 1 (A/Parma/24/09 H1N1; A/Parma/24/09 H1N1, neutralization): 30 fold; EC50 (A/Parma/05/06 H3N2 [1]; [11]): 5 ± 0.45 pM |
| CC(=O)N[C@@H](CO)C(=O)N[C@@H](CCCCN)C(=O)N[C@@H](Cc1c[nH]cn1)C(=O)N[C@@H](CO)C(N)=O [Peptide 17, SKHS] (Ac-SKHS-NH2) | – | – | – | – | – | SI (CC50/EC50) (A/Roma-ISS/02/08 H1N1): >8.33.10^6; EC50 (A/Roma-ISS/02/08 H1N1; A/Roma-ISS/02/08, 1 h): 3 ± 0.61 pM; SI (CC50/EC50) (A/Parma/24/09 H1N1): >5.2.10^8; SI (CC50/EC50) (A/Parma/05/06 H3N2 [1]): >5.10^6; EC50 (A/Parma/05/06 H3N2 [1]; A/Parma/05/06, 1 h): 5 ± 0.02 pM |
| AGDDQGLDKCVPNSKEK [Peptide 2, bLf C-lobe fragment 506–522] | – | – | – | – | – | concentration inhibiting viral hemagglutination [4]: low picomolar; concentration inhibiting viral infection [5]: low picomolar |
| NGESSADWAKN [Peptide 3] | – | – | – | – | – | concentration inhibiting viral hemagglutination [4]: low picomolar; concentration inhibiting viral infection [5]: low picomolar |
| NRKSSKHSSLDCVLRP [Peptide 11, bLf C-lobe fragment 414–429] | – | – | – | 0.4 | – | – |
| NRKSSKHSSLDCVLRPTEGY [Peptide 10, bLf C-lobe fragment 414–433] | – | – | – | 0.0014 | 0.3 | – |
| SKHSSLDCVLRPTEGY [Peptide 12, bLf C-lobe fragment 418–433] | – | – | – | 0.03 | 0.7 | – |
